In patent publication US11529319B2, “Methods and compositions for treating neurological conditions” (priority 2017, dated 2022):
“Also recorded” adds a separate entry of the source.

System: Mef2c-het mice
Assay: Immunohistochemistry and stereological cell counting in hippocampus after chronic treatment
Format: in vivo, mouse
Description: Mef2c heterozygous knockout (Mef2c-het) mice were created by crossing mice carrying the conventional exon 2-deleted allele of Mef2c (Mef2c^Δ2) with their WT littermates. All procedures for maintaining and using these mice were approved by the Institutional Animal Care and Use Committee (IACUC) at the Sanford Burnham Prebys Medical Discovery Institute. In this study, only male mice were used for the behavioral assays to insure uniformity (either with or without drug treatment). Chronic treatment with memantine, NitroSynapsin (both at 4.6 μmol/kg body weight) or vehicle (PBS) was administered via i.p. injection, twice a day for at least 3 months, starting at ˜2.5 weeks of age. This age was chosen because mice are still juveniles and thus treatment could begin in human at an equivalent stage.
Mice were perfused with PBS buffer and then 2% paraformaldehyde in PBS (PFA).
After perfusion, brains were removed and placed into 2% PFA overnight for post-fixation and then sunk in 30% sucrose in PBS prior to freezing. Cryostat sections were cut at a thickness of 15 μm. Sections were soaked in Antigen Unmasking Solution (Vector) and microwaved for 30 s, followed by permeabilization with 0.25% Triton X-100 in PBS for 15 min. Primary antibodies were incubated for 16 h at 4° C. and fluorescence-conjugated secondary antibodies for 2 h at 25° C. Numerous unstained cells in each field served as an internal control for staining specificity. Primary antibodies included: NeuN (mouse, EMD Millipore), activated caspase-3 (rabbit, Cell Signaling), VGLUT1 (guinea pig, SYSY), VGLUT2 (rabbit, SYSY), VGAT (mouse, SYSY), synaptophysin (mouse, Sigma), GFAP (mouse, Sigma), PCNA (mouse, Santa Cruz), DCX (goat, Santa Cruz). TUNEL assay was performed to assess apoptosis using the Roche In Situ Cell Death Detection Kit per vender's instruction. The number of cells positive or percent area occupied by NeuN, activated caspase-3, TUNEL, GFAP, PCNA, or DCX was counted in specific brain regions using an optical dissector, or estimated by quantitative confocal immunohistochemistry or optical density, as described previously.

**Q.** What does the source list for `CCC12CC3(N)CC(CC)(C1)CC(O[N+](=O)[O-])(C3)C2` [NitroSynapsin]?
**A.** PV-immunoreactive synapses (% area): significantly increased; also recorded: significantly ameliorated; TUNEL-positive neurons, hippocampal CA3: reduced back to normal; also recorded: ameliorated in Het/N mice; VGAT immunoreactivity in hippocampus: normalized; also recorded: rescue; VGLUT1 immunoreactivity in hippocampus: unaltered; VGLUT2 immunoreactivity in hippocampus: normalized; also recorded: rescue; activated caspase-3-positive neurons, hippocampal CA3: reduced back to normal; also recorded: ameliorated in Het/N mice; number of GFAP+ cells (astrocytes) in hippocampus: normalized the number of GFAP+ cells; also recorded: restored to WT levels; ratio of VGLUT1/VGAT: normalized; also recorded: rescue; ratio of VGLUT2/VGAT: normalized; also recorded: rescue; total number of NeuN+ cells in hippocampus (optical dissector): significantly greater than in Het/V mice; also recorded: significantly greater effect of NitroSynapsin over memantine; also recorded: significantly greater than in vehicle (V)-treated mice; also recorded: rescue
